Experimental data from patent publication US7897727B2, “Bioactive peptide for cell adhesion” (University of Delaware, priority 2000, dated 2011).
Entries after “also recorded” stand apart in the source; their conditions may differ. No end group written: not given here.

What was measured:
HES cells = experiment: Cell adhesion assay on coated 96 well plates (MTS), HES cells; type: cell-based, human; settings: peptide conjugated to BSA coated on MAXISORP plates; 1 hr attachment at 37° C.; serum-free RPMI 1640
Protocol: (§1) Concentrated stocks of rat-tail type I collagen were diluted to designated concentrations in 0.02 N acetic acid and coated overnight on MAXISORP® 96 well plates at room temperature (RT). Poly-L-lysine (PLL), heat-denatured bovine serum albumin (BSA), the peptide of SEQ ID NO:1 conjugated to BSA (indicated in FIGS. 4-7 as “PLN4”) and a scrambled peptide from domain IV of perlecan having the amino acid sequence TGKSVGGSLIWPVRGQH (SEQ ID NO:4) conjugated to BSA (indicated in FIGS. 4-7 as “PLN4*”) were diluted in 1×phosphate buffered saline (PBS) and also coated overnight on MAXISORP® 96 well plates at RT. The following day, the plates were washed three times with 1×PBS to remove any residue and blocked with 1% heat-denatured BSA for 1 hr at 37° C. Following blocking, plates were washed once with 1×PBS. Cells from various cell lines were harvested with 0.5 mM EDTA and collected by centrifugation. Pelleted cells were resuspended in serum-free RPMI 1640 and plated at a concentration of 2.5×10^4 cells per 100 μl. Cells were allowed to attach to the wells for 1 hr at 37° C. Next, the wells were washed once with 1% heat-denatured BSA to remove any unattached cells. Cell adhesion was quantified as in Example 1, using the CELLTITER 96® AQueous Non-Radioactive Cell Proliferation Assay (MTS). […] Following incubation, an Elisa plate reader was used to measure optical density. […]

PC3 cells = experiment: Cell adhesion assay on coated 96 well plates (MTS), PC3 cells; type: cell-based; settings: peptide conjugated to BSA coated on MAXISORP plates; 1 hr attachment at 37° C.; serum-free RPMI 1640
Protocol: as §1

[1] = system: marrow stromal cells HS27a; experiment: Cell adhesion assay on coated 96 well plates (MTS), HS27a cells; type: cell-based; settings: peptide conjugated to BSA coated on MAXISORP plates; 1 hr attachment at 37° C.; serum-free RPMI 1640
Protocol: as §1

marrow stromal cells HS5 = experiment: Cell adhesion assay on coated 96 well plates (MTS), HS5 cells; type: cell-based; settings: peptide conjugated to BSA coated on MAXISORP plates; 1 hr attachment at 37° C.; serum-free RPMI 1640
Protocol: as §1

[2] = system: multipotent mouse mesenchymal stem cells, 10T1/2; experiment: Cell adhesion of 10T1/2 cells to coated plastic (CELLTITER 96 MTS assay); type: cell-based
Protocol: Adhesion is measured by the cell proliferation assay CELLTITER 96® AQueous Non-Radioactive Cell Proliferation Assay (MTS) sold by Promega, Inc. The CELLTITER 96® AQueous Non-Radioactive Cell Proliferation Assay is a calorimetric method for determining the number of viable cells in proliferation, cytotoxicity or chemosensitivity assays. The CELLTITER 96® AQueous Non-Radioactive Cell Proliferation Assay is composed of solutions of a tetrazolium compound (3-(4,5-dimethylthiazol-2-yl)-5-(3-carboxymethoxyphenyl)-2-(4-su-lfophenyl)-2H-tetrazolium, inner salt; MTS) and an electron coupling reagent (phenazine methosulfate) PMS. MTS is bioreduced by cells into a formazan that is soluble in tissue culture medium. The absorbance of the formazan at 490 nm can be measured directly from 96 well assay plates without additional processing. The conversion of MTS into the aqueous soluble formazan is accomplished by dehydrogenase enzymes found in metabolically active cells. The quantity of formazan product as measured by the amount of 490 nm absorbance is directly proportional to the number of living cells in culture.
No adhesion to uncoated plastic occurred during the 30 minute time period of this study. BSA (bovine serum albumin) and poly-L-lysine (PLL) were used as coating controls. Collagen I, a known adhesive protein substrate for these cells, served as positive control. […]

Row | Sequence | cell adhesion / attachment and spreading, HES cells (HES cells) | cell adhesion / attachment and spreading, PC3 cells (PC3 cells) | cell adhesion / attachment and spreading, HS27a cells [1] | cell adhesion / attachment and spreading, HS5 cells (marrow stromal cells HS5) | adhesion of 10T1/2 cells ([2]; peptide conjugated to BSA, coated onto plastic, 30 minute time period, MTS absorbance 490 nm, listed as SEQ ID NO:1) | focal adhesion formation of 10T1/2 cells (photomicrographs) ([2]; plastic coated with BSA conjugated to the polypeptide)
1 | TGKSVGGSLIWPVRGQH (also: conjugated to BSA) [PLN4*, scrambled peptide from domain IV of perlecan, conjugated to BSA, reference compound] | cell attachment and spreading did not occur | cell attachment and spreading did not occur | cell attachment and spreading did not occur | cell attachment and spreading did not occur | – | –
2 | TWSKVGGHLRPGIVQSG (also: conjugated to BSA; listed as Homo sapiens) [PLN4, adhesive polypeptide derived from domain IV of perlecan; tested conjugated to BSA] | best adhesion and rapid focal adhesion formation of these four cell types | best adhesion and rapid focal adhesion formation of these four cell types | did not bind to the peptide | did not bind to the peptide | consistently strong; also recorded: best adhesion of the cell types reported herein | adhesion is followed by focal adhesion formation
